Paper PMC8841457 (Clinical and Translational Science, 2021)

Key:
[1] = test system: healthy recreational polydrug users; assay: Pupillometry; type: in vivo, human; settings: pentazocine 0.5 mg/kg i.v.; 8-h postdose period
[2] = test system: healthy recreational polydrug users; assay: Global retrospective assessments at 8 h postdose; settings: pentazocine 0.5 mg/kg i.v.
[3] = Plasma pharmacokinetics after single i.v. dose; settings: pentazocine 0.5 mg/kg single i.v., n = 40
[4] = test system: healthy recreational polydrug users; assay: Drug effect questionnaire; settings: pentazocine 0.5 mg/kg and difelikefalin 5 and 15 mcg/kg i.v.; unipolar 0-100 VAS
[5] = test system: healthy recreational polydrug users; assay: Drug Liking VAS, human abuse potential study; type: in vivo; settings: for Drug Liking VAS Emax LS mean difference: mixed-effect model
[6] = test system: healthy recreational polydrug users; assay: Drug Similarity VAS at 8 h postdose; type: in vivo, human; settings: pentazocine 0.5 mg/kg i.v.
[7] = test system: healthy recreational polydrug users; assay: Treatment-emergent adverse events; type: in vivo, human; settings: pentazocine 0.5 mg/kg single i.v., n = 40; safety population

CC(C)=CCN1CCC2(C)c3cc(O)ccc3CC1C2C (centres unmarked) [Pentazocine, pentazocine]
mean Emax reduction in pupil diameter from baseline (predose) [1]: 2.5 mm | PVAQ median value ([2]; 8 h postdose): 10.00 $ | PVAQ mean value ([2]; 8 h postdose, $0-$100 scale): 9.60 $ | Mean 8-h score, Overall Drug Liking VAS ([2]; bipolar VAS, 50 neutral): greater than or equal to 69 points | Mean 8-h score, Take Drug Again VAS ([2]; bipolar VAS, 50 neutral): greater than or equal to 69 points | Cmax ([3]; human plasma, tandem MS, mean (SD)): 296.0 (197.7) ng/ml | AUC0-t ([3]; mean (SD)): 487.4 (133.5) h*ng/ml | V d ([3]; mean (SD)): 4280 (1079.8) ml/kg | t 1/2 ([3]; mean (SD)): 3.7 (1.2) h | Tmax ([3]; median [range]): 0.1 [0.1, 0.8] h | Bad Effects VAS Emax, scores overall [4]: < 20 points | Drug Liking VAS Emax LS mean difference ([5]; pentazocine 0.5 mg/kg i.v. vs difelikefalin 5 mcg/kg i.v., completer set N = 39): 21.95 | Drug Liking VAS Emax LS mean difference ([5]; pentazocine 0.5 mg/kg i.v. vs difelikefalin 15 mcg/kg i.v., completer set N = 39): 20.92 | Drug Liking VAS Emax LS mean difference ([5]; pentazocine 0.5 mg/kg i.v. vs placebo, completer set N = 39): 35.50 | Mean Drug Liking VAS scores ([5]; pentazocine 0.5 mg/kg i.v., over the first 3 h): > 60 points | Drug Liking VAS Emax, median (min, max) ([5]; pentazocine 0.5 mg/kg single i.v., completer set N = 39): 91.0 (49, 100) | Drug Similarity VAS, median, cannabinoids, hallucinogens, or stimulants ([6]; unipolar 0-100): ≤ 2.0 | Drug Similarity VAS, median, benzodiazepines ([6]; unipolar 0-100, n=8): 22.5 | Drug Similarity VAS, median, opioids ([6]; unipolar 0-100, n=38): 65.0 | Any TEAE, subjects [7]: 13 (32.5) n (%) | Any serious TEAE, subjects [7]: 0 n (%) | Any severe TEAE, subjects [7]: 0 n (%) | Discontinuation due to TEAE, subjects [7]: 1 (2.5) n (%) | TEAE Abdominal pain upper, subjects [7]: 0 n (%) | TEAE Abdominal pain, subjects [7]: 0 n (%) | TEAE Chills, subjects [7]: 2 (5.0) n (%) | TEAE Constipation, subjects [7]: 1 (2.5) n (%) | TEAE Dizziness, subjects [7]: 2 (5.0) n (%) | TEAE Dyspepsia, subjects [7]: 0 n (%) | TEAE Groin pain, subjects [7]: 0 n (%) | TEAE Headache, subjects [7]: 4 (10.0) n (%) | TEAE Hot flush, subjects [7]: 3 (7.5) n (%) | TEAE Hypoesthesia, subjects [7]: 1 (2.5) n (%) | TEAE Nausea, subjects [7]: 5 (12.5) n (%) | TEAE Vomiting, subjects [7]: 5 (12.5) n (%)
